Measured values from PubChem BioAssay (NCI).
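All cell lines were grown in 96-well plates and treated with compound for 48 hours. The concentration for full growth arrest is given as TGI.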

Tests used:
Assay in all cases: NCI anticancer screen, dose series, 48 h
[1] = system: A498 renal
[2] = system: M14 melanoma
[3] = system: OVCAR-3 ovarian
[4] = system: PC-3 prostate
[5] = system: RXF 393 renal
[6] = system: SNB-75 CNS
[7] = system: MDA-MB-231 breast
[8] = system: SN12C renal
[9] = system: BT-549 breast
[10] = system: 786-0 renal
[11] = system: HCT-116 colon
[12] = system: CAKI-1 renal
[13] = system: SK-MEL-5 melanoma
[14] = system: HL-60(TB) leukemia
[15] = system: OVCAR-8 ovarian
[16] = system: HS 578T breast
[17] = system: RPMI-8226 leukemia
[18] = system: UACC-62 melanoma
[19] = system: K-562 leukemia
[20] = system: OVCAR-4 ovarian
[21] = system: T-47D breast
[22] = system: NCI-H23 lung
[23] = system: COLO 205 colon
[24] = system: NCI-H460 lung
[25] = system: U251 CNS
[26] = system: NCI/ADR-RES ovarian
[27] = system: MDA-MB-435
[28] = system: LOX IMVI melanoma
[29] = system: SF-539 CNS
[30] = system: UACC-257 melanoma
[31] = system: HOP-62 NSCLC
[32] = system: A549 NSCLC
[33] = system: EKVX NSCLC
[34] = system: SW-620 colon
[35] = system: HCT-15 colon
[36] = system: DU-145 prostate
[37] = system: MCF7 breast
[38] = system: ACHN renal
[39] = system: KM12 colon
[40] = system: MOLT-4 leukemia
[41] = system: TK-10 renal
[42] = system: MALME-3M melanoma
[43] = system: UO-31 renal
[44] = system: SK-OV-3 ovarian
[45] = system: IGROV1 ovarian
[46] = system: HOP-92 NSCLC
[47] = system: HT29 colon
[48] = system: NCI-H522 lung
[49] = system: SK-MEL-2 melanoma
[50] = system: CCRF-CEM leukemia
[51] = system: SK-MEL-28 melanoma
[52] = system: SF-268 CNS
[53] = system: SNB-19 CNS
[54] = system: SF-295 CNS

Measured: TGI

O=C1C=Cc2cscc21
32.8 µM: [5]
68.1 µM: [37]
80.6 µM: [7]
96.8 µM: [8]
42.5 µM: [48]
85.8 µM: [43]
66.9 µM: [35]
81.5 µM: [21]
31.4 µM: [10]
63.7 µM: [42]
52.6 µM: [50]
37.5 µM: [40]
47.7 µM: [3]
29.3 µM: [11]
67 µM: [12]
84.5 µM: [2]
> 100 µM: all other assays above
